Drawing on patent publication US20260308159A1, “BICYCLIC HETEROARYLAMIDES HAVING GPR68 MODULATING ACTIVITY” (RECURSION PHARMACEUTICALS, INC., priority 2023, published 2026), this text covers IC50 for 28 molecules.

Read-outs that look alike come from different tables or passages of the source. A value given as a limit tells only on which side of the number the result lay.

The experiment concerns the target T1, human GPR68 (Homo sapiens, UniProt Q15743).
T1 construct: encoding full-length human GPR68 (uniprot ID: Q15743); expressed in transfected cells; host or cells: HEK293T
As to the kind of experiment: GPR68 Biochemical Assay (Promega GloSensor cAMP assay, GPR68 antagonism). Particulars: 15 min. The experiment is classed as cell-based. The procedure:
GPR68 antagonism was determined using the Promega GloSensor™ CAMP assay (F. I. Wang et al., Methods 2021, S1046-2023 (21) 00249-8). HEK293T cells (obtained from ECACC, Cat 12022001, Lot no. 17E044) were cultured in T175 flasks (Greiner, Cat 660175) in DMEM (Gibco, Cat 11995-065) supplemented with 10% Fetal Bovine Serum (Gibco Cat 16000-044), and 100 u/mL Pen-Strep (Gibco, Cat 15140) at 37° C. and 5% CO2. GPR68 expression was achieved by transient transfection with a mammalian expression plasmid encoding full-length human GPR68 (uniprot ID: Q15743) under control of a CMV promoter. The day before transfection, cell media was aspirated and HEK293T cells were incubated with accutase (Sigma, Cat A6964) for 3-4 minutes 37° C. and 5% CO2 before being manually detached with excess DMEM and trituration. Cell density was determined by automated cell counting (Countess, Invitrogen) and adjusted to 6×10^6 cells/20 mL and transferred to 15 cm dishes (Thermo Fisher, Cat 130183) for overnight incubation at 37° C. and 5% CO2. The next day separate mammalian expression plasmids encoding hGPR68 (4 μg) and Promega GloSensor (8 μg) were diluted to 1 mL in Opti-MEM (Thermo Fisher Scientific, Cat 31985070) and incubated with 30 μL of lipofectamine 3000 (also diluted to 1 mL in Opti-MEM) for 15 minutes at room temperature and subsequently added dropwise to the plated cells. Post transfection cells were then incubated at 37° C. and 5% CO2 for at least 16 hours before transfer to assay plates the following day. Transfer was conducted by washing cells with PBS and incubating with accutase for 3-4 minutes 37° C. and 5% CO2 before being manually detached with excess DMEM and mild trituration. The suspension was then centrifuged at 192 RCF for 4 minutes in a 50 mL centrifuge tube (Greiner, Cat 227261).
Supernatant was removed by aspiration and the cell pellet was resuspended in DMEM+1% dialysed FBS (Gibco, Cat 26400-044) and 100 u/mL Pen-Strep to a cell density of 500 cells/μL. Cells were plated into poly-L-Lysine coated 384-well white assay plates (Corning, Cat 3570) at a final volume of 40 µL and a density of 20,000 cells/well before overnight incubation at 37° C. and 5% CO2. The following day media was manually ejected from the 384-well assay plate and replaced with 10 μL GloSensor substrate (Promega, Cat E1291) prepared in pH 8.0 assay buffer (1×HBSS, 10 mM HEPES, 10 mM MOPS). Cells were incubated with this solution for 60 minutes at room temperature in the dark. Test compounds or an equivalent volume of DMSO (vehicle) were added to compounds plates to create a 9-point, half-log concentration series for each compound with a maximum final assay concentration of 50 μM and a consistent final DMSO concentration of 0.5%. Assay buffer with 0.1% BSA and 0.01% ascorbic acid was prepared at three pHs: pH 8.0, pH 5.5 and pH 4.5. pH 8.0 and 4.5 were added to the compound plate as maximum and minimum effect controls whilst pH 5.5 was added to all compound wells to stimulate GPR68 to a level corresponding to […] of maximal stimulation after addition to the cells already in pH 8.0 (assay acceptance criteria range 70-90%). DMSO/Compound and buffer was added to the plated cells containing the GloSensor substrate and incubated for 15 minutes at room temperature before being read on a microplate reader (BMG PHERAstar, optic module LUM Plus with Gain 3600). Data was exported and analysed in excel and Graphpad prism (version 9). Assay QC acceptance criteria required the maximum and minimum controls to return a Z′≥0.5, the EC80 to be 80%±10% of expected and the reference ligand pIC50 to be within one-half-log unit of its historical IC50. Percent inhibition was calculated using the mean EC80 (pH 5.5) and mean minimum effect control (pH 8.0). Data were plotted as percentage inhibition, average±SEM. IC50, Emax, Emin, Actual max, actual min, R^2 and fit confidence were calculated using Graphpad Prism's sigmoidal dose-response function.
(Cyclic AMP is a second messenger, typically raised through Gs and lowered through Gi signalling.)

The mark [1] stands for this setting: HEK293T cells transiently expressing hGPR68, antagonism of pH 5.5 stimulated cAMP, read-out: hGPR68 IC50.
Where [2] appears, read: hGPR68 IC50, HEK293T cells transiently expressing hGPR68, antagonism of pH 5.5 stimulated cAMP.

T1 sequence (Q15743 whole entry): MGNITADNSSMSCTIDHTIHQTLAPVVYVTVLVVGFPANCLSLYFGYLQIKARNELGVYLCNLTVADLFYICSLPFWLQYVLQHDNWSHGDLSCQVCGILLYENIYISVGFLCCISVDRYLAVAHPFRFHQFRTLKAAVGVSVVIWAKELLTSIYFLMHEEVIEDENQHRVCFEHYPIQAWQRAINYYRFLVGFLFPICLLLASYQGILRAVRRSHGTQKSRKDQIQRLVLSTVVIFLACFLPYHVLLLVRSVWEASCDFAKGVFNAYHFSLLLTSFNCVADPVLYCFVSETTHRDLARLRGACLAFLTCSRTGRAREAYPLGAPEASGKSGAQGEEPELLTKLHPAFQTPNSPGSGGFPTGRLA

The term IC50 denotes the concentration that inhibits the measured activity by half. With `NC(=O)c1c(-c2cccnn2)nn2c(C(=O)NC3Cc4ccccc4C3)ccnc12` [Compound 22, N7-indan-2-yl-2-pyridazin-3-yl-pyrazolo[1,5-a]pyrimidine-3,7-dicarboxamide], under setting [1], the IC50 is 500 to 5000 nM.

As to `CN(C)CCNc1nn2c(C(=O)NC3Cc4ccccc4C3)ccnc2c1C(N)=O` [Compound 23, 2-[2-(dimethylamino)ethylamino]-N7-indan-2-yl-pyrazolo[1,5-a]pyrimidine-3,7-dicarboxamide], the IC50 under setting [1] lay within 50000 to 100000 nM.

`CN1CC(c2nn3c(C(=O)NC4Cc5ccccc5C4)ccnc3c2C(N)=O)C1` [Compound 24, N7-indan-2-yl-2-(1-methylazetidin-3-yl)pyrazolo[1,5-a]pyrimidine-3,7-dicarboxamide]: the half-maximal inhibitory concentration (IC50) under setting [1] fell in the range of 50000 to 100000 nM. With `NC(=O)c1c(-c2ncco2)nn2c(C(=O)NC3CC(F)(F)C3)ccnc12` [Compound 25, N7-(3,3-difluorocyclobutyl)-2-oxazol-2-yl-pyrazolo[1,5-a]pyrimidine-3,7-dicarboxamide], the IC50 under setting [1] lay within 500 to 5000 nM. On to `Cc1nc2c(C(=O)NC3CC(F)(F)C3)ccnn2c1C(N)=O` [Compound 26, N8-(3,3-difluorocyclobutyl)-2-methyl-imidazo[1,2-b]pyridazine-3,8-dicarboxamide], for which the IC50 under setting [1] lay within 50 to 500 nM. For the molecule `CC(C)OCc1nn2c(C(=O)NC3Cc4ccccc4C3)ccnc2c1C(N)=O` [Compound 27, N7-indan-2-yl-2-(isopropoxymethyl)pyrazolo[1,5-a]pyrimidine-3,7-dicarboxamide], the concentration for half-maximal inhibition (IC50) under setting [2] is below 50 nM. The molecule `CC(C)OCc1nn2c(C(=O)NC3CC(F)(F)C3)ccnc2c1C(N)=O` [Compound 28, N7-(3,3-difluorocyclobutyl)-2-(isopropoxymethyl)pyrazolo[1,5-a]pyrimidine-3,7-dicarboxamide] displayed an IC50 under setting [2] of 5000 to 50000 nM.

As to `CN(C)Cc1nn2c(C(=O)NC3Cc4ccccc4C3)ccnc2c1C(N)=O` [Compound 29, 2-[(dimethylamino)methyl]-N7-indan-2-yl-pyrazolo[1,5-a]pyrimidine-3,7-dicarboxamide], under setting [1], the half-inhibitory concentration (IC50) was 500 to 5000 nM. Still for that read-out and setting: then `CNCc1nn2c(C(=O)NC3Cc4ccccc4C3)ccnc2c1C(N)=O` [Compound 30, N7-indan-2-yl-2-(methylaminomethyl)pyrazolo[1,5-a]pyrimidine-3,7-dicarboxamide], with 500 to 5000 nM; and `O=C(NC1Cc2ccccc2C1)c1cccc2c(-c3ncco3)cnn12` [Compound 31, N-indan-2-yl-3-oxazol-2-yl-pyrazolo[1,5-a]pyridine-7-carboxamide], with 5000 to 50000 nM; and `Cc1nn2c(C(=O)NC3CC(F)(F)C3)c(-c3cn[nH]c3)cnc2c1C(N)=O` [Compound 32, N7-(3,3-difluorocyclobutyl)-2-methyl-6-(1H-pyrazol-4-yl)pyrazolo[1,5-a]pyrimidine-3,7-dicarboxamide], with 500 to 5000 nM. With `NC(=O)c1c(-c2ncco2)nn2c(C(=O)NC3Cc4ccccc4C3)ccnc12` [Compound 33, N7-indan-2-yl-2-oxazol-2-yl-pyrazolo[1,5-a]pyrimidine-3,7-dicarboxamide], the IC50 under setting [2] was below 50 nM. With `CNc1nn2c(C(=O)NC3CC(F)(F)C3)ccnc2c1C(N)=O` [Compound 34, N7-(3,3-difluorocyclobutyl)-2-(methylamino)pyrazolo[1,5-a]pyrimidine-3,7-dicarboxamide], under setting [1], the concentration for half-maximal inhibition (IC50) was below 50 nM. In the case of `CN(C)c1nn2c(C(=O)NC3CC(F)(F)C3)ccnc2c1C(N)=O` [Compound 35, N7-(3,3-difluorocyclobutyl)-2-(dimethylamino)pyrazolo[1,5-a]pyrimidine-3,7-dicarboxamide], the IC50 under setting [1] lay within 500 to 5000 nM. `NC(=O)c1c(-c2ccccc2F)nn2c(C(=O)NC3Cc4ccccc4C3)cccc12` [Compound 36, 2-(2-fluorophenyl)-N7-indan-2-yl-pyrazolo[1,5-a]pyridine-3,7-dicarboxamide]: the IC50 under setting [1] is 500 to 5000 nM.

Consider `NC(=O)c1c(C2CCOC2)nn2c(C(=O)NC3Cc4ccccc4C3)ccnc12` (stereo not shown) [Compound 37, N7-indan-2-yl-2-tetrahydrofuran-3-yl-pyrazolo[1,5-a]pyrimidine-3,7-dicarboxamide], for which the concentration for half-maximal inhibition (IC50) under setting [2] was below 50 nM.

Under setting [2], `Cc1cnc2c(C(N)=O)c(C)nn2c1C(=O)NC1CC(F)(F)C1` [Compound 38, N7-(3,3-difluorocyclobutyl)-2,6-dimethyl-pyrazolo[1,5-a]pyrimidine-3,7-dicarboxamide] came in with a 50% inhibitory concentration (IC50) of 5000 to 50000 nM. `COCc1cc(C(=O)NC2CC(F)(F)C2)n2nc(C)c(C(N)=O)c2n1` [Compound 39, N7-(3,3-difluorocyclobutyl)-5-(methoxymethyl)-2-methyl-pyrazolo[1,5-a]pyrimidine-3,7-dicarboxamide]: the half-maximal inhibitory concentration (IC50) under setting [2] was 500 to 5000 nM.

As for `CNC(=O)c1c(-c2ccccc2)nn2c(C(=O)NC3Cc4ccccc4C3)cccc12` [Compound 40, N7-indan-2-yl-N3-methyl-2-phenyl-pyrazolo[1,5-a]pyridine-3,7-dicarboxamide], the IC50 under setting [1] lay within 50000 to 100000 nM. On to `COc1cc(C(=O)NC2CC(F)(F)C2)n2nc(C)c(C(N)=O)c2n1` [Compound 41, N7-(3,3-difluorocyclobutyl)-5-methoxy-2-methyl-pyrazolo[1,5-a]pyrimidine-3,7-dicarboxamide], for which, under setting [2], the IC50 is 500 to 5000 nM.

With `Cc1cc(C(=O)NC2CC(F)(F)C2)n2nc(C)c(C(N)=O)c2n1` [Compound 42, N7-(3,3-difluorocyclobutyl)-2,5-dimethyl-pyrazolo[1,5-a]pyrimidine-3,7-dicarboxamide], the IC50 under setting [1] was 50 to 500 nM. Turning to `NC(=O)c1c(C2CCCO2)nn2c(C(=O)NC3CC(F)(F)C3)ccnc12` (stereo not shown) [Compound 43, N7-(3,3-difluorocyclobutyl)-2-tetrahydrofuran-2-yl-pyrazolo[1,5-a]pyrimidine-3,7-dicarboxamide], the IC50 under setting [2] lay in the range of 50 to 500 nM. The same measure, in the same setting: then `NC(=O)c1c(C2CCCO2)nn2c(C(=O)NC3Cc4ccccc4C3)ccnc12` (stereo not shown) [Compound 44, N7-indan-2-yl-2-tetrahydrofuran-2-yl-pyrazolo[1,5-a]pyrimidine-3,7-dicarboxamide], with 50 to 500 nM. Under setting [2], `NC(=O)c1c(C2CCOC2)nn2c(C(=O)NC3CC(F)(F)C3)ccnc12` (stereo not shown) [Compound 45, N7-(3,3-difluorocyclobutyl)-2-tetrahydrofuran-3-yl-pyrazolo[1,5-a]pyrimidine-3,7-dicarboxamide] yielded a half-maximal inhibitory concentration (IC50) of 500 to 5000 nM. With `Cc1nn2c(C(=O)NC3Cc4ccccc4C3)ccnc2c1C(N)=O` [Compound 46, N7-indan-2-yl-2-methyl-pyrazolo[1,5-a]pyrimidine-3,7-dicarboxamide], the IC50 under setting [1] was below 50 nM. As to `Cc1nn2c(C(=O)NC3COc4ccccc4C3)ccnc2c1C(N)=O` (stereo not shown) [Compound 47, N7-chroman-3-yl-2-methyl-pyrazolo[1,5-a]pyrimidine-3,7-dicarboxamide], the IC50 under setting [1] fell in the range of 500 to 5000 nM. Consider `Cc1nn2c(C(=O)NC3CC(F)(F)C3)ccnc2c1C(N)=O` [Compound 48, N7-(3,3-difluorocyclobutyl)-2-methyl-pyrazolo[1,5-a]pyrimidine-3,7-dicarboxamide], for which, under setting [1], the IC50 was in the range of 50 to 500 nM. Regarding `Cc1nn2c(C(=O)NC3Cc4cccnc4C3)ccnc2c1C(N)=O` (stereo not shown) [Compound 49, N7-(6,7-dihydro-5H-cyclopenta[b]pyridin-6-yl)-2-methyl-pyrazolo[1,5-a]pyrimidine-3,7-dicarboxamide], under setting [1], the IC50 lay in the range of 500 to 5000 nM.
